The source made the active and inactive calls. The calls are words filed in the database; no cut-off is given here.
Experiments:
Mus musculus [1] = species on record: Mus musculus; experiment: Anticonvulsant activity in albino CF-1 Mus musculus (mouse) assessed as minimum dose required to protect half or more animals against maximal electroshock-induced seizures measured after 4 hr by electroshock seizure method; format: functional; conditions: albino CF-1, 4 h, read-out: MED
Mus musculus [2] = experiment: Anticonvulsant activity in albino CF-1 Mus musculus (mouse) assessed as protection against maximal electroshock-induced seizures at 300 mg/kg measured after 0.5 hr by electroshock seizure method; format: functional, organism-based; parameters: dose 300 mg/kg
Mus musculus [3] = species on record: Mus musculus; experiment: Toxicity in albino CF-1 Mus musculus (mouse) assessed as minimum dose required to induce motor impairment in half or more animals measured after 4 hr by rotarod test; format: organism-based; conditions: in vivo
Mus musculus [4] = experiment: Toxicity in albino CF-1 Mus musculus (mouse) assessed as motor impairment at 300 mg/kg measured after 0.5 hr by rotarod test; format: organism-based; parameters: dose 300 mg/kg; conditions: in vivo
Mus musculus [5] = experiment: Toxicity in albino CF-1 Mus musculus (mouse) assessed as motor impairment at 300 mg/kg measured after 4 hr by rotarod test; format: organism-based; parameters: dose 300 mg/kg; conditions: in vivo
Mus musculus [6] = species on record: Mus musculus; experiment: Anticonvulsant activity in albino CF-1 Mus musculus (mouse) assessed as minimum dose required to protect half or more animals against maximal electroshock-induced seizures measured after 0.5 hr by electroshock seizure method; format: functional; conditions: albino CF-1, 0.5 h, read-out: MED
Mus musculus [7] = experiment: Induction of CNS depressant activity in albino CF-1 Mus musculus (mouse) assessed as increase in immobility at 100 mg/kg, ip measured after 30 min by Porsolt's force swim pool method; format: organism-based, Central nervous system; parameters: dose 100 mg/kg, route intraperitoneal; conditions: in vivo, 0.5 h
Mus musculus [8] = experiment: Induction of CNS depressant activity in albino CF-1 Mus musculus (mouse) assessed as duration of immobility at 100 mg/kg, ip measured after 30 min by Porsolt's force swim pool method (reference value: 52.7 +/-0.70 secs); format: organism-based, Central nervous system; parameters: dose 100 mg/kg, route intraperitoneal; conditions: in vivo, 0.5 h
Mus musculus [9] = species on record: Mus musculus; experiment: Toxicity in albino CF-1 Mus musculus (mouse) assessed as minimum dose required to induce motor impairment in half or more animals measured after 0.5 hr by rotarod test; format: organism-based; conditions: in vivo

O=c1c2ccccc2nc(-c2ccccc2)n1/N=C/c1cccc(OCc2ccccc2)c1
minimal effective dose (Mus musculus [1]): 300 mg/kg | Activity (Mus musculus [2]): inactive | MED (Mus musculus [3]): 300 mg/kg | Activity (Mus musculus [4]): Non-toxic

CC(C)Oc1cccc(/C=N/n2c(-c3ccccc3)nc3ccccc3c2=O)c1
minimal effective dose (Mus musculus [1]): 300 mg/kg | Activity (Mus musculus [5]): Non-toxic | minimal effective dose (Mus musculus [6]): 300 mg/kg | Activity (Mus musculus [4]): Non-toxic

O=c1c2ccccc2nc(-c2ccccc2)n1/N=C/c1cccc(O)c1
minimal effective dose (Mus musculus [1]): 100 mg/kg | Activity (Mus musculus [2]): inactive | Activity (Mus musculus [5]): Non-toxic | Activity (Mus musculus [4]): Non-toxic

CCCOc1cccc(/C=N/n2c(-c3ccccc3)nc3ccccc3c2=O)c1
minimal effective dose (Mus musculus [1]): 30 mg/kg | Activity (Mus musculus [5]): Non-toxic | minimal effective dose (Mus musculus [6]): 100 mg/kg | Activity (Mus musculus [7]): 52.18% | Activity (Mus musculus [4]): Non-toxic | Time (Mus musculus [8]): 80.2 s

CCCCOc1cccc(/C=N/n2c(-c3ccccc3)nc3ccccc3c2=O)c1
minimal effective dose (Mus musculus [1]): 100 mg/kg | Activity (Mus musculus [5]): Non-toxic | minimal effective dose (Mus musculus [6]): 300 mg/kg | Activity (Mus musculus [4]): Non-toxic

CCOc1cccc(/C=N/n2c(-c3ccccc3)nc3ccccc3c2=O)c1
minimal effective dose (Mus musculus [1]): 100 mg/kg | Activity (Mus musculus [5]): Non-toxic | minimal effective dose (Mus musculus [6]): 100 mg/kg | Activity (Mus musculus [7]): 29.6% | Activity (Mus musculus [4]): Non-toxic | Time (Mus musculus [8]): 68.3 s

O=C1NC(=O)C(c2ccccc2)(c2ccccc2)N1 [PHENYTOIN]
minimal effective dose (Mus musculus [1]): 30 mg/kg | minimal effective dose (Mus musculus [6]): 30 mg/kg | MED (Mus musculus [3]): 100 mg/kg | Activity (Mus musculus [4]): Non-toxic

C=CCCOc1cccc(/C=N/n2c(-c3ccccc3)nc3ccccc3c2=O)c1
minimal effective dose (Mus musculus [1]): 100 mg/kg | Activity (Mus musculus [5]): Non-toxic | minimal effective dose (Mus musculus [6]): 300 mg/kg | Activity (Mus musculus [7]): 110.81% | Activity (Mus musculus [4]): Non-toxic | Time (Mus musculus [8]): 111.1 s

COc1cccc(/C=N/n2c(-c3ccccc3)nc3ccccc3c2=O)c1
minimal effective dose (Mus musculus [1]): 100 mg/kg | Activity (Mus musculus [2]): inactive | Activity (Mus musculus [5]): Non-toxic | Activity (Mus musculus [4]): Non-toxic

NC(=O)N1c2ccccc2C=Cc2ccccc21 [CARBAMAZEPINE]
minimal effective dose (Mus musculus [1]): 30 mg/kg | MED (Mus musculus [9]): 300 mg/kg | minimal effective dose (Mus musculus [6]): 30 mg/kg | Activity (Mus musculus [7]): 56.35% | MED (Mus musculus [3]): 100 mg/kg | Time (Mus musculus [8]): 82.4 s

C=CCOc1cccc(/C=N/n2c(-c3ccccc3)nc3ccccc3c2=O)c1
minimal effective dose (Mus musculus [1]): 300 mg/kg | Activity (Mus musculus [5]): Non-toxic | minimal effective dose (Mus musculus [6]): 300 mg/kg | Activity (Mus musculus [4]): Non-toxic
